The structures appear in SMILES notation. The source made the active and inactive calls. No cut-off for these calls is given here.

The target in data set [1] is T1, Peptide deformylase, mitochondrial (Homo sapiens, UniProt Q9HBH1).
T1 sequence (Q9HBH1 whole entry): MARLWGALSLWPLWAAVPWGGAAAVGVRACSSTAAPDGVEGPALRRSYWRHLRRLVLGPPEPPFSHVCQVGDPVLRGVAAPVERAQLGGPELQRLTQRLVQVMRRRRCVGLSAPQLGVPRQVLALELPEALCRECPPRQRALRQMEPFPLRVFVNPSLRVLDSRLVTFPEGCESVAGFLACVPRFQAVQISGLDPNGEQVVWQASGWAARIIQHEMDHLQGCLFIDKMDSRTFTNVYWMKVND
Description: Inhibition of human PDF expressed in Escherichia coli BL21 pLysS using formyl-Met-Ala-His-Ala peptide as substrate measured after 1 hr by fluorescamine-based fluorescence assay.

In data set [2] the target is T2, Peptide deformylase, mitochondrial (Homo sapiens) (UniProt Q9HBH1).
T2 sequence (whole entry): T1 sequence (Q9HBH1 whole entry)
Briefly: Inhibition of PDF in human A549 cells assessed as decrease in mtDNA encoded COX1 protein level measured after 48 hrs by Western blot analysis. It is filed as cell-based.

The test system of data set [3] is A549. Briefly: Induction of apoptosis in human A549 cells assessed as live cells at 40 uM measured after 24 hrs by Annexin V-FITC/propidium iodide staining based FACSClibur flow cytometry analysis (reference value: 97 %). The format is functional.
Data set [4] has as its system A549. Briefly: Induction of apoptosis in human A549 cells assessed as early apoptotic cells at 40 uM measured after 24 hrs by Annexin V-FITC/propidium iodide staining based FACSClibur flow cytometry analysis (reference value: 0.35 %). The format is functional.
The test system of data set [5] is A549. Briefly: Induction of apoptosis in human A549 cells assessed as induction of caspase-3 activation at 40 uM using Ac-DEVD-pNA as substrate preincubated for 24 hrs followed by substrate addition and measured after 2 hrs by microplate reader assay. It is filed as functional, cell-based.
For data set [6], the target named is Histone deacetylase 1 (Homo sapiens, UniProt Q13547). Briefly: Inhibition of HDAC1 (unknown origin) at 10 uM using Boc-Lys(Ac)-pNA as substrate preincubated for 20 mins followed by substrate addition and further incubated for 90 mins by fluorescence assay relative to control.
Data set [7] deals with T3, Protein deacetylase HDAC6 (Homo sapiens, UniProt Q9UBN7).
T3 sequence (Q9UBN7 whole entry): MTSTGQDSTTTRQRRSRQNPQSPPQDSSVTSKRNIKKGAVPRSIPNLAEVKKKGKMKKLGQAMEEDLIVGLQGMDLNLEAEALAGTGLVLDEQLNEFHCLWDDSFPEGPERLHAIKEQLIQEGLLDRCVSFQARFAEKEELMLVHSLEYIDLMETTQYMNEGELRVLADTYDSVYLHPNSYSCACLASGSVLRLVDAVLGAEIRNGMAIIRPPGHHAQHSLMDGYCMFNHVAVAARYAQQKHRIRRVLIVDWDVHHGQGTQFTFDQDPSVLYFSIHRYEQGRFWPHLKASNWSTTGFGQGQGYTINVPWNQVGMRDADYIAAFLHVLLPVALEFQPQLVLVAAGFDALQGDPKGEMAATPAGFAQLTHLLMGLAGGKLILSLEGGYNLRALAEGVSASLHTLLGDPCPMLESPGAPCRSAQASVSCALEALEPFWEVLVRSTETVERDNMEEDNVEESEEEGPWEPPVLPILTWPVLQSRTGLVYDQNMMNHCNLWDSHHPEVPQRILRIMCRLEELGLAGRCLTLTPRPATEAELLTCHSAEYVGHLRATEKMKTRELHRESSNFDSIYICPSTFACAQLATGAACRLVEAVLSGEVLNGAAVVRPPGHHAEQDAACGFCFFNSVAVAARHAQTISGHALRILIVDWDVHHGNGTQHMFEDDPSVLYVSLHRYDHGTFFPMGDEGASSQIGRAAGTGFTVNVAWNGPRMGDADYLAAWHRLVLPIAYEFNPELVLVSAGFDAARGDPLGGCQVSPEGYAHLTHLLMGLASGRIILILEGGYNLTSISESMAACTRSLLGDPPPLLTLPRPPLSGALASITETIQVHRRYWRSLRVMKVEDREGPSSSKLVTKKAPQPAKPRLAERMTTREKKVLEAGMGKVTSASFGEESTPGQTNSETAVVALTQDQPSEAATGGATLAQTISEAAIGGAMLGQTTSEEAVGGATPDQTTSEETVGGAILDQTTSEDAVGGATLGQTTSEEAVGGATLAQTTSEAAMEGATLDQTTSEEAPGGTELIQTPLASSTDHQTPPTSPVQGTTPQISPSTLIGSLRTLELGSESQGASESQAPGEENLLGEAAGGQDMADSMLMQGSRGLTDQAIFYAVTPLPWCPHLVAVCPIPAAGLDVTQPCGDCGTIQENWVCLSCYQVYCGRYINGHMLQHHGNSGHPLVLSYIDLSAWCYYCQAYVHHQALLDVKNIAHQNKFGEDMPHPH
Description: Inhibition of HDAC6 (unknown origin) using Boc-Lys(Ac)-pNA as substrate preincubated for 20 mins followed by substrate addition and further incubated for 90 mins by fluorescence assay.

Data set [8] concerns the target T4, Protein deacetylase HDAC6 (Homo sapiens) (UniProt Q9UBN7).
T4 sequence (whole entry): T3 sequence (Q9UBN7 whole entry)
Description: Inhibition of HDAC6 (unknown origin) at 10 uM using Boc-Lys(Ac)-pNA as substrate preincubated for 20 mins followed by substrate addition and further incubated for 90 mins by fluorescence assay relative to control.

A short description of data set [9]: Terminal half life in Sprague-Dawley rat at 2 mg/kg, iv measured up to 24 hrs by LC-MS/MS analysis. The format is ADME, organism-based. Particulars: in vivo, read-out: beta t1/2 (converted).
Data set [10] in a line: Clearance in Sprague-Dawley rat at 2 mg/kg, iv measured up to 24 hrs by LC-MS/MS analysis. It is filed as ADME, organism-based. Particulars: in vivo.
A short description of data set [11]: Cmax in Sprague-Dawley rat at 20 mg/kg, po measured at 0.25 hrs by LC-MS/MS analysis. Particulars: in vivo. The arrangement: dose 20 mg/kg, route oral. It is filed as ADME, organism-based.
A short description of data set [12]: AUC (0 to infinity) in Sprague-Dawley rat at 20 mg/kg, po measured up to 24 hrs by LC-MS/MS analysis. It is filed as ADME, organism-based. Set-up: dose 20 mg/kg, route oral, time infinity. Particulars: in vivo.
For data set [13], the system named is HCT-116. Description: Antitumor activity against human HCT116 cells xenografted in BALB/c nude mouse assessed as tumor growth inhibition at 50 mg/kg, ip administered every 3 days for 21 days and measured every second day for 21 days during compound dosing by digital caliper method relative to control. The format is functional. Particulars: HCT-116, ip, read-out: TGI.

Data set [14] is described as follows: Selectivity index, ratio of IC50 for human MCF10A cells assessed as reduction in cell growth measured after 48 hrs by CCK8 assay to IC50 for human A549 cells assessed as reduction in cell growth measured after 48 hrs by CCK8. Particulars: MCF10A cells versus A549 cells, read-out: Ratio IC50. The format is toxicity.
A short description of data set [15]: Selectivity index, ratio of IC50 for human MCF10A cells assessed as reduction in cell growth measured after 48 hrs by CCK8 assay to IC50 for human MCF7 cells assessed as reduction in cell growth measured after 48 hrs by CCK8. It is filed as toxicity. Particulars: MCF10A cells versus MCF7 cells, read-out: Ratio IC50.
Data set [16] has as its system HCT-116. Briefly: Antitumor activity against human HCT116 cells xenografted in ip dosed BALB/c nude mouse assessed as tumor growth inhibition administered every 3 days for 21 days and measured every second day for 21 days during compound dosing by digital caliper method. It is filed as functional, organism-based.

Histone deacetylase 1, sequence (Q13547 whole entry): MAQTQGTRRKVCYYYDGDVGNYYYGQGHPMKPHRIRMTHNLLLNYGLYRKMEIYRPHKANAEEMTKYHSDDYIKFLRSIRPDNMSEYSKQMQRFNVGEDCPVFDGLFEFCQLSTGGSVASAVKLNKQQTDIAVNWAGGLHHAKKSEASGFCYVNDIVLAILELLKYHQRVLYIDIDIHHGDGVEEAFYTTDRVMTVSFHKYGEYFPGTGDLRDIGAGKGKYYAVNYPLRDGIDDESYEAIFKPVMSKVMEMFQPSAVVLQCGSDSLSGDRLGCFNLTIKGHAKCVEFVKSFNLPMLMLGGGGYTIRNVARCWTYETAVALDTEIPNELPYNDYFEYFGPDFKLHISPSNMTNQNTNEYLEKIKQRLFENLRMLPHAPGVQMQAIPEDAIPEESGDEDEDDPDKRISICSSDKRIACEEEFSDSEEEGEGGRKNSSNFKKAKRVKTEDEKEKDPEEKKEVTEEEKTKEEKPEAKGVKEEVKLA

For `O=C(C[C@@H](CC1CCCC1)C(=O)N1CC2(CC2)C[C@H]1c1nc(-c2ccc(F)cc2C(F)(F)F)no1)NO`, the IC50 was 4.11 nM in [1] and over 10000 nM in [7]. The inhibition entry in data set [2] is “Dose-dependent effect”; in data set [6], -0.35%; in data set [8], 0.41%. Besides, the Activity is given as 87.8% in data set [3] and 4.03% in [4]. The outcome in data set [5] was inactive. Also, the half-life in data set [9] is 3.7 h. In data set [10], this molecule returned a CL of 444.7 mL/min/kg. For the same molecule, the concentration in [11] peaked (Cmax) at 617 ng/mL. The molecule also gave an exposure (AUC) in data set [12] of 940 ng·h/mL. The inhibition in vivo at 50 mg/kg in data set [13] was found to be 72.5%. The selectivity ratio at 48 h in [14] and in [15] was 9 in each case. Further, the TGI result in data set [16] was “Dose-dependent effect”.
